Two compounds from patent US11826414B2, “Measurement of afucosylated IgG Fc glycans and related vaccination methods” (priority 2017, dated 2023) can be followed below.

Where two headings read alike, the source gives them in different places.

Data set [1] relates to dengue 2. The data set is classed as cell-based, dengue virus. The settings on record: FcγRIIa+FcγRIIIa− U937 cells treated with PMA/ionomycin.
Data set [2] concerns dengue 2. It counts as cell-based, dengue virus. Particulars: for Inhibition of dengue 2 infection (ADE): FcγRIIa+FcγRIIIa+ monocytes, pre-incubation with inhibitor.
The test system of data set [3] is H1N1 influenza virus (IAV). It counts as cell-based. Particulars: DC-SIGN U937 cells, no antibodies present.
Data set [4] has as its system H3N2 influenza virus (IAV). The data set is classed as cell-based. Particulars: DC-SIGN U937 cells, no antibodies present.
The subject of data set [5] is FcγRIIa^+FcγRIIIa^+ monocytes. The settings on record: at concentrations tested.
A further data set deals with Zika virus (ZIKV). It counts as cell-based. The settings on record: DC-SIGN U937 cells, no antibodies present.

As to 11R-VIVIT, the “Inhibition of enhanced infection after PMA/ionomycin treatment” value in the data set with dengue 2 [1] is listed as “could be inhibited”. In the data set with dengue 2 [2] (5 μM peptide, all MOIs tested), the “Inhibition of dengue infection” value was more than 70%. In addition, the “Inhibition of dengue 2 infection (ADE)” value in the data set on dengue 2 [2] was “inhibited dengue 2 infection in a concentration-dependent manner”. In addition, the “Inhibition of dengue 2 replication, time of treatment” value in the data set with dengue 2 [2] (treatment of cells up to 2 hours following infection) is reported as “inhibited dengue 2 replication”. Moreover, the Inhibition of infection result (in data set [3]; in data set [4]; in the data set with Zika virus (ZIKV)) was “did not inhibit” throughout. Also, the Cell viability result in data set [5] is on record as “unaffected”.

As to `Cc1cccc(Nc2nc(N[C@@H]3CCCC[C@@H]3N)ncc2C(N)=O)c1` [PRT318], the “Inhibition of dengue 2 infection (ADE)” value with dengue 2 [2] is on record as “inhibited in FcγRIIa^+FcγRIIIa^+ monocytes in a concentration-dependent manner”; in the data set on dengue 2 [2] (listed as PRT), “inhibited dengue 2 infection in FcγRIIa+FcγRIIIa+ monocytes in a concentration-dependent manner”.
